Experimental data: PMC11124822, “Discovery and Anticancer Screening of Novel Oxindole-Based Derivative Bearing Pyridyl Group as Potent and Selective Dual FLT3/CDK2 Kinase Inhibitor” (Pharmaceuticals, 2024)
Like-named read-outs stand apart in the source and are kept apart here.

What was measured:
[1] = tested on: NCI-60 human cancer cell lines; assay: NCI-60 screen, full panel summary; type: cell-based
Experimental: In a comprehensive test, compounds were assayed at a single dose concentration (10^−5 M) in the full panel of NCI-60 cancer cell lines.

786-0 = assay: NCI-60 antiproliferative screen (SRB); type: cell-based, human; conditions: 48 h
SN12C = assay: NCI-60 antiproliferative screen (SRB); type: cell-based, human; conditions: 48 h
M14 = assay: NCI-60 antiproliferative screen (SRB); type: cell-based, human; conditions: 48 h
OVCAR-5 = assay: NCI-60 antiproliferative screen (SRB); type: cell-based, human; conditions: 48 h
OVCAR-8 = assay: NCI-60 antiproliferative screen (SRB); type: cell-based, human; conditions: 48 h
LOX IMVI = assay: NCI-60 antiproliferative screen (SRB); type: cell-based, human; conditions: 48 h; for CC50: read-out: LC50 (the source's name)
UACC-257 = assay: NCI-60 antiproliferative screen (SRB); type: cell-based, human; conditions: 48 h
DU-145 = assay: NCI-60 antiproliferative screen (SRB); type: cell-based, human; conditions: 48 h
NCI-H522 = assay: NCI-60 antiproliferative screen (SRB); type: cell-based, human; conditions: 48 h
HCT-15 = assay: NCI-60 antiproliferative screen (SRB); type: cell-based, human; conditions: 48 h
NCI-H226 = assay: NCI-60 antiproliferative screen (SRB); type: cell-based, human; conditions: 48 h
EKVX = assay: NCI-60 antiproliferative screen (SRB); type: cell-based, human; conditions: 48 h
CAKI-1 = assay: NCI-60 antiproliferative screen (SRB); type: cell-based, human; conditions: 48 h
NCI-H23 = assay: NCI-60 antiproliferative screen (SRB); type: cell-based, human; conditions: 48 h
SK-OV-3 = assay: NCI-60 antiproliferative screen (SRB); type: cell-based, human; conditions: 48 h
NCI-H460 = assay: NCI-60 antiproliferative screen (SRB); type: cell-based, human; conditions: 48 h
NCI/ADR-RES = assay: NCI-60 antiproliferative screen (SRB); type: cell-based, human; conditions: 48 h
SF-295 = assay: NCI-60 antiproliferative screen (SRB); type: cell-based, human; conditions: 48 h
UACC-62 = assay: NCI-60 antiproliferative screen (SRB); type: cell-based, human; conditions: 48 h
CCRF-CEM = assay: NCI-60 antiproliferative screen (SRB); type: cell-based, human; conditions: 48 h
MDA-MB-435 = assay: NCI-60 antiproliferative screen (SRB); type: cell-based, human; conditions: 48 h
ACHN = assay: NCI-60 antiproliferative screen (SRB); type: cell-based, human; conditions: 48 h
IGROV1 = assay: NCI-60 antiproliferative screen (SRB); type: cell-based, human; conditions: five-dose, 48 h, IGROV1
HS 578T = assay: NCI-60 antiproliferative screen (SRB); type: cell-based, human; conditions: 48 h
SF-539 = assay: NCI-60 antiproliferative screen (SRB); type: cell-based, human; conditions: 48 h
SK-MEL-28 = assay: NCI-60 antiproliferative screen (SRB); type: cell-based, human
BT-549 = assay: NCI-60 antiproliferative screen (SRB); type: cell-based, human; conditions: 48 h
OVCAR-4 = assay: NCI-60 antiproliferative screen (SRB); conditions: Homo sapiens, OVCAR-4, 48 h, read-out: Growth inhibition (%)

O=C1Nc2cc(Cl)ccc2C1=Cc1ccc(OCc2cccnc2)cc1 (mixture of isomers) [Compound 5l, (E/Z)-6-Chloro-3-[4-(pyridin-3-ylmethoxy)benzylidene] indolin-2-one]
Positive Cytostatic Effect (cell lines with percent growth from 0 to 50 / total number of cell lines) ([1]; 10 µM single dose): 44/56
Positive Cytotoxic Effect (cell lines with percent growth of <0 / total number of cell lines) ([1]; 10 µM single dose): 4/56
Sensitive/Total Cell Lines ([1]; 10 µM single dose): 48/56
The Most Sensitive Cell Line ([1]; 10 µM single dose): SK-MEL-5
number of cell lines with cytostatic effects ([1]; 10 µM single dose): 44
number of cell lines with cytotoxic effects ([1]; 10 µM single dose): 4
Mean Growth Percent ([1]; 10 µM single dose, all NCI-60 cell lines): 72.81
inhibition at 10 µM ([1]; Homo sapiens, 10 µM single dose, read-out: Range of Growth Inhibition on All Cells): 8.89 to 153%
GI50 ([1]; Homo sapiens, five-dose, almost all cell lines, read-out: GI50 values, range over evaluated human cancer types): 2.7 to 77.1 µM
CC50 ([1]; Homo sapiens, five-dose, excluding LOX IMVI, SK-MEL-5, SK-MEL-28, read-out: LC50 for most of the examined cancer cells): > 100 µM
GI50 ([1]; Homo sapiens, five-dose, full panel, read-out: Full panel MG-MID (GI50)): 12.2 µM
TGI against the left-over cancer cells ([1]; five-dose): > 100 µM
inhibition at 10 µM (786-0; Homo sapiens, 10 µM single dose, 786-0 (Renal), read-out: Growth inhibition (%)): 47.2%
GI50 (786-0; Homo sapiens, five-dose, 786-0): 26.6 µM
CC50 (786-0; Homo sapiens, five-dose, 786-0, read-out: LC50 (the source's name)): > 100 µM
TGI (786-0; five-dose, 786-0): >100 µM
inhibition at 10 µM (SN12C; Homo sapiens, 10 µM single dose, SN12C (Renal), read-out: Growth inhibition (%)): 66.1%
GI50 (SN12C; Homo sapiens, five-dose, SN12C): 9.74 µM
CC50 (SN12C; Homo sapiens, five-dose, SN12C, read-out: LC50 (the source's name)): > 100 µM
TGI (SN12C; five-dose, SN12C): 66.60 µM
inhibition at 10 µM (M14; Homo sapiens, 10 µM single dose, M14 (Melanoma), read-out: Growth inhibition (%)): 77.1%
GI50 (M14; Homo sapiens, five-dose, M14): 29 µM
TGI (M14; five-dose, M14): >100 µM
inhibition at 10 µM (OVCAR-5; Homo sapiens, 10 µM single dose, OVCAR-5 (Ovarian), read-out: Growth inhibition (%)): 21.7%
GI50 (OVCAR-5; Homo sapiens, five-dose, OVCAR-5): 25 µM
TGI (OVCAR-5; five-dose, OVCAR-5): >100 µM
inhibition at 10 µM (OVCAR-8; Homo sapiens, 10 µM single dose, OVCAR-8 (Ovarian), read-out: Growth inhibition (%)): 88.6%
GI50 (OVCAR-8; Homo sapiens, five-dose, OVCAR-8): 7.96 µM
TGI (OVCAR-8; five-dose, OVCAR-8): 45.20 µM
CC50 (LOX IMVI; Homo sapiens, LOX IMVI, five-dose, LOX IMVI): 96.9 µM
inhibition at 10 µM (LOX IMVI; Homo sapiens, 10 µM single dose, LOX IMVI (Melanoma), read-out: Growth inhibition (%)): 91%
GI50 (LOX IMVI; Homo sapiens, five-dose, LOX IMVI): 4.7 µM
TGI (LOX IMVI; five-dose, LOX IMVI): 24.80 µM
CC50 (LOX IMVI; five-dose, LOX IMVI): 96.6 µM
inhibition at 10 µM (UACC-257; Homo sapiens, 10 µM single dose, UACC-257 (Melanoma), read-out: Growth inhibition (%)): 76.7%
GI50 (UACC-257; Homo sapiens, five-dose, UACC-257): 8.06 µM
CC50 (UACC-257; Homo sapiens, five-dose, UACC-257, read-out: LC50 (the source's name)): > 100 µM
TGI (UACC-257; five-dose, UACC-257): 43.80 µM
inhibition at 10 µM (DU-145; Homo sapiens, 10 µM single dose, DU-145 (Prostate), read-out: Growth inhibition (%)): 58.6%
GI50 (DU-145; Homo sapiens, five-dose, DU-145): 13.2 µM
TGI (DU-145; five-dose, DU-145): 54.90 µM
inhibition at 10 µM (NCI-H522; Homo sapiens, 10 µM single dose, NCI-H522 (NSCLC), read-out: Growth inhibition (%)): 104%
GI50 (NCI-H522; Homo sapiens, five-dose, NCI-H522): 12.3 µM
TGI (NCI-H522; five-dose, NCI-H522): 82.20 µM
inhibition at 10 µM (HCT-15; Homo sapiens, 10 µM single dose, HCT-15 (Colon), read-out: Growth inhibition (%)): 97.2%
GI50 (HCT-15; Homo sapiens, five-dose, HCT-15): 3.46 µM
TGI (HCT-15; five-dose, HCT-15): 25.20 µM
inhibition at 10 µM (NCI-H226; Homo sapiens, 10 µM single dose, NCI-H226 (NSCLC), read-out: Growth inhibition (%)): 62.9%
GI50 (NCI-H226; Homo sapiens, five-dose, NCI-H226): 9 µM
TGI (NCI-H226; five-dose, NCI-H226): 70.00 µM
inhibition at 10 µM (EKVX; Homo sapiens, 10 µM single dose, EKVX (NSCLC), read-out: Growth inhibition (%)): 60.9%
GI50 (EKVX; Homo sapiens, five-dose, EKVX): 6.02 µM
TGI (EKVX; five-dose, EKVX): >100 µM
inhibition at 10 µM (CAKI-1; Homo sapiens, 10 µM single dose, CAKI-1 (Renal), read-out: Growth inhibition (%)): 69.8%
GI50 (CAKI-1; Homo sapiens, five-dose, CAKI-1): 4.44 µM
CC50 (CAKI-1; Homo sapiens, five-dose, CAKI-1, read-out: LC50 (the source's name)): > 100 µM
TGI (CAKI-1; five-dose, CAKI-1): 26.90 µM
inhibition at 10 µM (NCI-H23; Homo sapiens, 10 µM single dose, NCI-H23 (NSCLC), read-out: Growth inhibition (%)): 75.6%
GI50 (NCI-H23; Homo sapiens, five-dose, NCI-H23): 5.93 µM
TGI (NCI-H23; five-dose, NCI-H23): >100 µM
inhibition at 10 µM (SK-OV-3; Homo sapiens, 10 µM single dose, SK-OV-3 (Ovarian), read-out: Growth inhibition (%)): 32.2%
GI50 (SK-OV-3; Homo sapiens, five-dose, SK-OV-3): 71.8 µM
CC50 (SK-OV-3; Homo sapiens, five-dose, SK-OV-3, read-out: LC50 (the source's name)): > 100 µM
TGI (SK-OV-3; five-dose, SK-OV-3): >100 µM
inhibition at 10 µM (NCI-H460; Homo sapiens, 10 µM single dose, NCI-H460 (NSCLC), read-out: Growth inhibition (%)): 77.7%
GI50 (NCI-H460; Homo sapiens, five-dose, NCI-H460): 14 µM
CC50 (NCI-H460; Homo sapiens, five-dose, NCI-H460, read-out: LC50 (the source's name)): > 100 µM
TGI (NCI-H460; five-dose, NCI-H460): >100 µM
inhibition at 10 µM (NCI/ADR-RES; Homo sapiens, 10 µM single dose, NCI/ADR-RES (Ovarian), read-out: Growth inhibition (%)): 112%
GI50 (NCI/ADR-RES; Homo sapiens, five-dose, NCI/ADR-RES): 3.45 µM
TGI (NCI/ADR-RES; five-dose, NCI/ADR-RES): 23.60 µM
inhibition at 10 µM (SF-295; Homo sapiens, 10 µM single dose, SF-295 (CNS), read-out: Growth inhibition (%)): 63.3%
GI50 (SF-295; Homo sapiens, five-dose, SF-295): 10.6 µM
TGI (SF-295; five-dose, SF-295): 39.90 µM
inhibition at 10 µM (UACC-62; Homo sapiens, 10 µM single dose, UACC-62 (Melanoma), read-out: Growth inhibition (%)): 64.3%
GI50 (UACC-62; Homo sapiens, five-dose, UACC-62): 7.7 µM
TGI (UACC-62; five-dose, UACC-62): 43.50 µM
inhibition at 10 µM (CCRF-CEM; Homo sapiens, 10 µM single dose, CCRF-CEM (Leukemia), read-out: Growth inhibition (%)): 83.9%
GI50 (CCRF-CEM; Homo sapiens, five-dose, CCRF-CEM): 3.72 µM
TGI (CCRF-CEM; five-dose, CCRF-CEM): >100 µM
inhibition at 10 µM (MDA-MB-435; Homo sapiens, 10 µM single dose, MDA-MB-435 (Melanoma), read-out: Growth inhibition (%)): 121%
GI50 (MDA-MB-435; Homo sapiens, five-dose, MDA-MB-435): 4.44 µM
TGI (MDA-MB-435; five-dose, MDA-MB-435): 76.90 µM
inhibition at 10 µM (ACHN; Homo sapiens, 10 µM single dose, ACHN (Renal), read-out: Growth inhibition (%)): 55.1%
GI50 (ACHN; Homo sapiens, five-dose, ACHN): 10.8 µM
TGI (ACHN; five-dose, ACHN): 75.30 µM
GI50 (IGROV1; Homo sapiens, IGROV-1): 10.7 µM
CC50 (IGROV1; Homo sapiens, IGROV-1, read-out: LC50 (the source's name)): > 100 µM
TGI (IGROV1): 3.32 µM
inhibition at 10 µM (HS 578T; Homo sapiens, 10 µM single dose, HS 578T (Breast), read-out: Growth inhibition (%)): 62.7%
GI50 (HS 578T; Homo sapiens, five-dose, HS 578T): 12.8 µM
CC50 (HS 578T; Homo sapiens, five-dose, HS 578T, read-out: LC50 (the source's name)): > 100 µM
TGI (HS 578T; five-dose, HS 578T): 98.10 µM
inhibition at 10 µM (SF-539; Homo sapiens, 10 µM single dose, SF-539 (CNS), read-out: Growth inhibition (%)): 59.3%
GI50 (SF-539; Homo sapiens, five-dose, SF-539): 13.6 µM
TGI (SF-539; five-dose, SF-539): >100 µM
CC50 (SK-MEL-28; Homo sapiens, SK-MEL-28, 48 h, five-dose, SK-MEL-28, read-out: LC50 (the source's name)): 71.5 µM
inhibition at 10 µM (SK-MEL-28; Homo sapiens, 10 µM single dose, 48 h, SK-MEL-28 (Melanoma), read-out: Growth inhibition (%)): 46.3%
GI50 (SK-MEL-28; Homo sapiens, five-dose, 48 h, SK-MEL-28): 12.3 µM
TGI (SK-MEL-28; five-dose, 48 h, SK-MEL-28): 28.50 µM
CC50 (SK-MEL-28; five-dose, 48 h, SK-MEL-28, read-out: LC50 (the source's name)): 65.6 µM
inhibition at 10 µM (BT-549; Homo sapiens, 10 µM single dose, BT-549 (Breast), read-out: Growth inhibition (%)): 95.7%
GI50 (BT-549; Homo sapiens, five-dose, BT-549): 10.4 µM
CC50 (BT-549; Homo sapiens, five-dose, BT-549, read-out: LC50 (the source's name)): > 100 µM
TGI (BT-549; five-dose, BT-549): 46.30 µM
inhibition at 10 µM (OVCAR-4): 68.4%
